According to article PMC4579270, “Identification and Characterization of an Irreversible Inhibitor of CDK2” (Chemistry & Biology, 2015):

Legend:
Assay in all cases: Dundee protein kinase screen
Type in all cases: biochemical
[1] = molecular target: IKKe (Homo sapiens, UniProt Q14164); conditions: read-out: %Remaining activity at 1µM NU6300
Procedure: (§1) Prior to determining its cellular activity, we carried out a screen to assess its selectivity against a panel of 131 protein kinases under conditions that would not distinguish between a reversible or irreversible mode of action. […] These 13 kinases and 29 additional kinases, selected for their known sensitivity to other inhibitors within the purine series, were then tested in a modified screening format in which the assay was repeated following a 4-hr pre-incubation (Table S3B). […] However, conformational flexibility around the active site may promote such an interaction with a residue from another part of the structure ([Martin et al., 2012]).
(§2) Table S3, Related to Figure 4. NCL-0006300 protein kinase selectivity. (A) NU6300 was tested at a single concentration of 1µM against 131 protein kinases present in a Dundee protein kinase screen (Bain et al., 2007). Values given are % activity remaining and are the average of duplicate measurements: 0-25% (red), 26-50% (yellow), 51-80% (black) and above 81% (green). The kinase domain sequences (as defined by UniProt) of […]
(§3) have a lysine residue at a position close to CDK2 Lys88 or Lys89. However, in the structure of tyrosine-protein kinase BTK (PDB ID: 3GEN) the residue equivalent to CDK2 Asp86 is Cys481 and therefore there is the potential for a covalent adduct to be formed through this side chain. […]

[2] = molecular target: BTK (Homo sapiens, UniProt Q06187); conditions: read-out: %Remaining activity at 1µM NU6300
Sequence of BTK (Q06187 whole entry): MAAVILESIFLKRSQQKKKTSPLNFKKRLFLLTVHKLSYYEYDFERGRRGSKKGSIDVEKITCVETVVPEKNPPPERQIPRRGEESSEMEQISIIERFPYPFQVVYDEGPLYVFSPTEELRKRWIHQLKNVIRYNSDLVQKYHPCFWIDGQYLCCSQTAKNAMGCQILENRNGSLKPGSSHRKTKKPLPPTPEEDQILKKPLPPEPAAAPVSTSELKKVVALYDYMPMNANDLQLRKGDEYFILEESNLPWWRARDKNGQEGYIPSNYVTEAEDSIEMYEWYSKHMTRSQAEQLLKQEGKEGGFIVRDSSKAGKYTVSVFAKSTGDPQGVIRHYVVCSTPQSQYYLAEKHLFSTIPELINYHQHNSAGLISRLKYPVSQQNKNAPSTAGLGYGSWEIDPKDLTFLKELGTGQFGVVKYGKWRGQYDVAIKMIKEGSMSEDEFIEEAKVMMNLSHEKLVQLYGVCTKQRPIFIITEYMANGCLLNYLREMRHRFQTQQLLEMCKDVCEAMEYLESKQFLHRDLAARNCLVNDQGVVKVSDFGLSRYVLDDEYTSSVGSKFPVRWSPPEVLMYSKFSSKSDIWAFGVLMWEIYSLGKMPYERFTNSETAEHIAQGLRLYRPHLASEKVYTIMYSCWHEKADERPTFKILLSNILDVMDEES
Procedure: as §1, §2, §3

[3] = molecular target: MARK1 (Homo sapiens, UniProt Q9P0L2); conditions: MARK1, 1µM; read-out: %Remaining activity at 1µM NU6300
Procedure: as §1, §2, §3

[4] = molecular target: IRAK4 (Homo sapiens, UniProt Q9NWZ3); conditions: IRAK4, 1µM; read-out: %Remaining activity at 1µM NU6300
Sequence of IRAK4 (Q9NWZ3 whole entry): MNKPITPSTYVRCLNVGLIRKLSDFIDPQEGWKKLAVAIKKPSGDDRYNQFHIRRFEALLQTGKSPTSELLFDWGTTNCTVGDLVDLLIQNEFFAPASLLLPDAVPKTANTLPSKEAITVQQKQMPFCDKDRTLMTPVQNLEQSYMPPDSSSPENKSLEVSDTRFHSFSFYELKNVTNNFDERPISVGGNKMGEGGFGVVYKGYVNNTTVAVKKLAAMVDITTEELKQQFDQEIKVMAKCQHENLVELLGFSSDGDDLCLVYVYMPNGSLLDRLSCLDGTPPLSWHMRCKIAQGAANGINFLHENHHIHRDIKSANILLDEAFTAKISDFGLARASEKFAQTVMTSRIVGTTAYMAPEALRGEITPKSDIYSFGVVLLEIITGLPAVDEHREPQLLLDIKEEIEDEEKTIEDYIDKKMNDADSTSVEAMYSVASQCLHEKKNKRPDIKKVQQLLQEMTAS
Procedure: as §1, §2, §3

[5] = molecular target: GCK (Homo sapiens, UniProt Q12851); conditions: read-out: %Remaining activity at 1µM NU6300
Procedure: as §1, §2, §3

[6] = molecular target: BRSK2 (Homo sapiens, UniProt Q8IWQ3); conditions: BRSK2, 1µM; read-out: %Remaining activity at 1µM NU6300
Sequence of BRSK2 (Q8IWQ3 whole entry): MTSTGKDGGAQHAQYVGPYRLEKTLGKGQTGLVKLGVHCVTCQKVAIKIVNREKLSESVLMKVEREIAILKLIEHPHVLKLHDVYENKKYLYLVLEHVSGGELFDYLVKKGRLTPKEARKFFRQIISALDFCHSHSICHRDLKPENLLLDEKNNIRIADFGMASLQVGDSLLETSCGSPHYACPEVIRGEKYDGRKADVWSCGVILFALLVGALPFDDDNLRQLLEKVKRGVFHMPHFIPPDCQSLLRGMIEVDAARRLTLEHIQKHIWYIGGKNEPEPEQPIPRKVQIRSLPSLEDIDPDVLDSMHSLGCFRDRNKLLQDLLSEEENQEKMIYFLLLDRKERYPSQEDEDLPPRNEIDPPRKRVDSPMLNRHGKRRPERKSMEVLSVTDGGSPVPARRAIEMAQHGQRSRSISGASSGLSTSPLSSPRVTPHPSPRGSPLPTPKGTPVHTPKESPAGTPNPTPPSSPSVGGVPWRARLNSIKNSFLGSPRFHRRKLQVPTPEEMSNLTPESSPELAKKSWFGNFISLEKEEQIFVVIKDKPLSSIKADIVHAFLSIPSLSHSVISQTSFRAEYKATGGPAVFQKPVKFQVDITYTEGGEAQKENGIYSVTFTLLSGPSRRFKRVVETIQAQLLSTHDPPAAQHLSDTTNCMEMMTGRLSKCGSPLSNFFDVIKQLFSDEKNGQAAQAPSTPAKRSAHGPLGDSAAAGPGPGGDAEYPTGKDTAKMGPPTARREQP
Procedure: as §1, §2, §3

[7] = molecular target: Aurora B (Homo sapiens, UniProt Q96GD4); conditions: read-out: %Remaining activity at 1µM NU6300
Procedure: as §1, §2, §3

[8] = molecular target: EF2K (Homo sapiens, UniProt O00418); conditions: read-out: %Remaining activity at 1µM NU6300
Procedure: as §1, §2, §3

[9] = molecular target: T1, MARK4 (Homo sapiens, UniProt Q96L34); conditions: MARK4, 1µM; read-out: %Remaining activity at 1µM NU6300
T1 sequence (Q96L34 1-752): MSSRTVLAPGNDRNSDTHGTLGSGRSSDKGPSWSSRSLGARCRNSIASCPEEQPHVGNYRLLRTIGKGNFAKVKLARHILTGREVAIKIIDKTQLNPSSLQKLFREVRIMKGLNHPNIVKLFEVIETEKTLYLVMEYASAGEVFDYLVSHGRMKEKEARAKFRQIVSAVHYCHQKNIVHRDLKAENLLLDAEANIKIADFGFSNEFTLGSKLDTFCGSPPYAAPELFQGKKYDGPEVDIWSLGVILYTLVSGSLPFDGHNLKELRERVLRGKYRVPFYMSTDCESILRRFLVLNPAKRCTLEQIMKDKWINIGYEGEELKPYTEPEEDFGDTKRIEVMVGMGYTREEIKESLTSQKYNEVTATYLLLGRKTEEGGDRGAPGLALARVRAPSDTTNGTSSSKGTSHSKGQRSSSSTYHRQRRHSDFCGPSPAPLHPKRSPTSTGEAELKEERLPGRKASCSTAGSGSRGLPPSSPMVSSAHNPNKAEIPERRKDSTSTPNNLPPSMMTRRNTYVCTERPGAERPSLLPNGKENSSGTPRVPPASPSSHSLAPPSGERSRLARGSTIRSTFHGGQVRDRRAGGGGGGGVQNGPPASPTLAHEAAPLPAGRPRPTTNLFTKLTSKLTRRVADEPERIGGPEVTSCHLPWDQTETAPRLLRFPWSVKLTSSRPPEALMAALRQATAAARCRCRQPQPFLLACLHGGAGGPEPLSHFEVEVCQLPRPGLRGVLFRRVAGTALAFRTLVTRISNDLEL
Procedure: as §1, §2, §3

[10] = molecular target: HIPK3 (Homo sapiens, UniProt Q9H422); conditions: HIPK3, 1µM; read-out: %Remaining activity at 1µM NU6300
Procedure: as §1, §2, §3

[11] = molecular target: IKKb (Homo sapiens, UniProt O14920); conditions: read-out: %Remaining activity at 1µM NU6300
Procedure: as §1, §2, §3

[12] = molecular target: BRK (Homo sapiens, UniProt Q13882); conditions: read-out: %Remaining activity at 1µM NU6300
Procedure: as §1, §2, §3

[13] = molecular target: DYRK2 (Homo sapiens, UniProt Q92630); conditions: DYRK2, 1µM; read-out: %Remaining activity at 1µM NU6300
Procedure: as §1, §2, §3

[14] = molecular target: LKB1 (Homo sapiens, UniProt Q15831); conditions: LKB1, 1µM; read-out: %Remaining activity at 1µM NU6300
Procedure: as §1, §2, §3

[15] = molecular target: MAPKAP-K2 (Homo sapiens, UniProt P49137); conditions: MAPKAP-K2, 1µM; read-out: %Remaining activity at 1µM NU6300
Sequence of MAPKAP-K2 (P49137 whole entry): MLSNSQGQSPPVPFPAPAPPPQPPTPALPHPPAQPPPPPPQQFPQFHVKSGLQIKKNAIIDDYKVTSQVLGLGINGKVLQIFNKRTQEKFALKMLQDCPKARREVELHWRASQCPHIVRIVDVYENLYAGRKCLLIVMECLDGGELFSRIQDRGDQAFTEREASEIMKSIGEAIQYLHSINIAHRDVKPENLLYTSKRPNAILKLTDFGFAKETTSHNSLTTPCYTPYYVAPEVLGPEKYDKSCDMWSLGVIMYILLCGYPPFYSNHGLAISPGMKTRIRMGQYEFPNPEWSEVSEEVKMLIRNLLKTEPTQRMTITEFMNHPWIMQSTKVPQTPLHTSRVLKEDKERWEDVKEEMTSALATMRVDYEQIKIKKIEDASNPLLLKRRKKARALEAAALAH
Procedure: as §1, §2, §3

[16] = molecular target: EPH-A4 (Homo sapiens, UniProt P54764); conditions: EPH-A4, 1µM; read-out: %Remaining activity at 1µM NU6300
Sequence of EPH-A4 (P54764 20-986): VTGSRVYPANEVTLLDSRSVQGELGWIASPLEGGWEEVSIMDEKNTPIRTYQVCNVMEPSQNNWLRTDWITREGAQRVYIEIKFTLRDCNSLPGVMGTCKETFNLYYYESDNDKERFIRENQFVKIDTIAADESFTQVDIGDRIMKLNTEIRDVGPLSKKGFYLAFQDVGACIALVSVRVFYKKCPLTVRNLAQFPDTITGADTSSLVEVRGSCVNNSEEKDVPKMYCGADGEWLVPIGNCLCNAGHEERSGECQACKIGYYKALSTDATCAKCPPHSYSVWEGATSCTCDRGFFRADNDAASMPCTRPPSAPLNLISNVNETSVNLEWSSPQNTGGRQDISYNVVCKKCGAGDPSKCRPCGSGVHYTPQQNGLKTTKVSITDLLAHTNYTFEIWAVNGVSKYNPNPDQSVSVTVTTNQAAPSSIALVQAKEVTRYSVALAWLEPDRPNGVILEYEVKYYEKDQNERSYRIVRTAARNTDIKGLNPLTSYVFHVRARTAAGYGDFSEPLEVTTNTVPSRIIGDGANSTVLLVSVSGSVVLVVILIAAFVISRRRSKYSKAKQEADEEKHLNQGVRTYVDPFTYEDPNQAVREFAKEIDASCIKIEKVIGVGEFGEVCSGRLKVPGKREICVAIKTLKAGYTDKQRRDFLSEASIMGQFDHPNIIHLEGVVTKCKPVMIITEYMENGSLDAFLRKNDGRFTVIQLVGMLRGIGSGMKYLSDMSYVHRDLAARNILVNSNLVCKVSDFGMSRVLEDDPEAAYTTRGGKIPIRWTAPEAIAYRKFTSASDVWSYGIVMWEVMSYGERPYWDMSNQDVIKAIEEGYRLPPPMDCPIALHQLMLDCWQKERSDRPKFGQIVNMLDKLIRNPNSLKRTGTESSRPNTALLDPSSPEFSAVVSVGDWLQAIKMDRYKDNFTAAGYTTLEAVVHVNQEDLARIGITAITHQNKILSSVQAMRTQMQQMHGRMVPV
Procedure: as §1, §2, §3

[17] = test system: AMPK
Procedure: as §1, §2, §3

[18] = molecular target: EIF2AK3 (Homo sapiens, UniProt Q9NZJ5); conditions: EIF2AK3, 1µM; read-out: %Remaining activity at 1µM NU6300
Sequence of EIF2AK3 (Q9NZJ5 30-1116): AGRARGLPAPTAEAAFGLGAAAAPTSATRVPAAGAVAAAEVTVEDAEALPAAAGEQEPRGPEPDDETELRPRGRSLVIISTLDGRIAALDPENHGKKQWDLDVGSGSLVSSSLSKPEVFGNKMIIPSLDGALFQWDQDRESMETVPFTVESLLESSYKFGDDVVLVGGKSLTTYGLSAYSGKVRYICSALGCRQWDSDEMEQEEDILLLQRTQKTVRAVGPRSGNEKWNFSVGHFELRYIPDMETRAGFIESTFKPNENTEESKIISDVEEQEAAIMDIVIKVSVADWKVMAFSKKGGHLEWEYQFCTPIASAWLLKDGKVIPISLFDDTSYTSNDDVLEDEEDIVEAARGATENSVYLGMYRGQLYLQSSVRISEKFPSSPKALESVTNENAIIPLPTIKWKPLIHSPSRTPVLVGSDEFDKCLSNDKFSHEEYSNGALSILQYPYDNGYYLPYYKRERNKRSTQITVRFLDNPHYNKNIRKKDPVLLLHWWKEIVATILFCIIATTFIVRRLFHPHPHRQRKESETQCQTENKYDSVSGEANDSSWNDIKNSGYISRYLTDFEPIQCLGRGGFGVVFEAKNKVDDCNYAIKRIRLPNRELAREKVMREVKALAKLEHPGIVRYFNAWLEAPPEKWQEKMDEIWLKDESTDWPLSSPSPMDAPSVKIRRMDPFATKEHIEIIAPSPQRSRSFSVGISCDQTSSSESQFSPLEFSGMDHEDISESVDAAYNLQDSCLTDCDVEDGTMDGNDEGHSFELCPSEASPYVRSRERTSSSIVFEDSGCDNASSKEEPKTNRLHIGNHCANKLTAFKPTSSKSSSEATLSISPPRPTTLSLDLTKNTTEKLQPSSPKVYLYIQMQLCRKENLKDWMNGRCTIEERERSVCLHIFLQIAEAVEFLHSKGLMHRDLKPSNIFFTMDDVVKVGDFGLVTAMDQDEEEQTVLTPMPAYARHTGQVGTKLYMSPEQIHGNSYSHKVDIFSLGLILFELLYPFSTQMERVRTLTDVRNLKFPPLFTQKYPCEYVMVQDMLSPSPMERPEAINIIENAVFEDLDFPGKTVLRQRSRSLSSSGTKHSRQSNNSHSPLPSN
Procedure: as §1, §2, §3

[19] = molecular target: Lck (Homo sapiens, UniProt P06239); conditions: read-out: %Remaining activity at 1µM NU6300
Procedure: as §1, §2, §3

Sequence of IKKe (Q14164 whole entry): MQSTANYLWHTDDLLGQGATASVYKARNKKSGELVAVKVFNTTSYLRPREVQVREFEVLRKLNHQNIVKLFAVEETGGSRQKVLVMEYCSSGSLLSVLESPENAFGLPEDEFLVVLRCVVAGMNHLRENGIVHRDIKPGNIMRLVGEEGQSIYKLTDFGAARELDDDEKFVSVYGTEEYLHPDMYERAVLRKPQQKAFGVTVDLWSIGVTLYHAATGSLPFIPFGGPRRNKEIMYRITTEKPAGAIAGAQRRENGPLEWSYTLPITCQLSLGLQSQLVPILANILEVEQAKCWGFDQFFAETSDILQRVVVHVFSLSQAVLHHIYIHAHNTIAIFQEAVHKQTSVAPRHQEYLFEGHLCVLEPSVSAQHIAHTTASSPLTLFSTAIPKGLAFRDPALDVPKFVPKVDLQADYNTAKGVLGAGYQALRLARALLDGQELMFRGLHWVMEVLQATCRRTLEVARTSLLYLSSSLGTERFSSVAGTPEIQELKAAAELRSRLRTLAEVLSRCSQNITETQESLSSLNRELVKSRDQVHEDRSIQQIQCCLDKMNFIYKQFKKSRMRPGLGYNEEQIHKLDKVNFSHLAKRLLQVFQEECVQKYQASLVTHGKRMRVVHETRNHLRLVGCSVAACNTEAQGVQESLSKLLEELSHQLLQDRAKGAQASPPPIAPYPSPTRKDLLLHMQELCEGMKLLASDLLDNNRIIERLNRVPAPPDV

C=CS(=O)(=O)c1ccc(Nc2nc(OCC3CCCCC3)c3nc[nH]c3n2)cc1 [NU6300, 6-(cyclohexylmethoxy)-N-(4-(vinylsulfonyl)phenyl)-9H-purin-2-amine]
remaining activity at 1 µM [1]: 68% | remaining activity at 1 µM [2]: 17% | remaining activity at 1 µM [3]: 47% | remaining activity at 1 µM [4]: 78% | remaining activity at 1 µM [5]: 26% | remaining activity at 1 µM [6]: 60% | remaining activity at 1 µM [7]: 26% | remaining activity at 1 µM [8]: 69% | remaining activity at 1 µM [9]: 37% | remaining activity at 1 µM [10]: 96% | remaining activity at 1 µM [11]: 84% | remaining activity at 1 µM [12]: 59% | remaining activity at 1 µM [13]: 78% | remaining activity at 1 µM [14]: 59% | remaining activity at 1 µM [15]: 93% | remaining activity at 1 µM [16]: 69% | %Remaining activity at 1µM NU6300 [17]: 47% | remaining activity at 1 µM [18]: 83% | remaining activity at 1 µM [19]: 42%
